The subject of assay [1] is Rhipicephalus Sanguineus (nymphs). The assay can be described thus: Arena test in vitro against Rhipicephalus sanguineus (nymphs). It counts as in vivo. To be noted: even up to a dilution of 10 μg/cm^2. The procedure: (§1) This method is carried out in titre plates having 6 wells with a cross-section of 5 cm each, using a computer-supported video system. Each well of the titre plate is lined with a circular filter paper or another suitable carrier material. The substance of formula I to be tested is dissolved in methanol, acetonitrile or another suitable solvent, with ultrasound treatment and heating being employed for poorly-soluble substances. In an amount of 1 to 100 μg/cm^2, the dissolved test substance is placed in the centre of the filter paper on a quadrant or circular area of ca. 2.4 cm^2 radius. 4 of the 6 wells are filled with different test substances or with the same test substance in different dilutions (e.g. 1, 3.2, 5, 10 and 20 μg/cm^2). The 5th well is treated with DEET (N,N-diethyl-m-toluamide) as standard substance. The 6th well is filled with the pure solvent and serves as a control. 60 to 100 larvae or 25 to 50 nymphs or 10 to 25 adults of the parasite to be tested, e.g. ticks, are added to each filter paper, and the system is covered with a pane of glass and positioned under a video camera. At intervals of 5 seconds, the video camera takes individual pictures of all 6 wells. […] 6 or with the standard in the 5th well. […] In this way, neutral and deterring substances are determined. At the same time, the duration of activity of the test substance is determined and compared with that of the standard. By plotting all the images for each individual well over one another, different areas of density are obtained. This represents the frequency at which the parasites visit certain places. This frequency is evaluated statistically and thus quantitatively by the Willcoxon method in a comparison with the control and with the standard.
Arena Test in vitro Against Rhipicephalus Sanguineus (nymphs)
A test is carried out analogously to example B using ca. 40 to 50 nymphs.

Assay [2] concerns Boophilus Microplus Biarra (larvae). The assay can be described thus: Arena test in vitro against Boophilus microplus Biarra (larvae). It counts as in vivo. As to conditions: even up to a dilution of 10 μg/cm^2. The procedure: as §1
Arena Test in vitro Against Boophilus Microplus Biarra (larvae)
The test is carried out as described above, with ca. 60 to 100 larvae being added per well. 10 mg of dissolved test substance is applied to an area of 2.4 cm^2 radius.

Assay [3] concerns Amblyomma Hebraeum or Variegatum (nymphs). The assay can be described thus: Arena test in vitro against Amblyomma hebraeum or variegatum (nymphs). Type of assay: in vivo. As to conditions: even up to a dilution of 3.2 μg/cm^2. The procedure: (§2) This method is carried out in titre plates having 6 wells with a cross-section of 5 cm each, using a computer-supported video system. Each well of the titre plate is lined with a circular filter paper or another suitable carrier material. The substance of formula I to be tested is dissolved in methanol, acetonitrile or another suitable solvent, with ultrasound treatment and heating being employed for poorly-soluble substances. In an amount of 1 to 100 μg/cm^2, the dissolved test substance is placed in the centre of the filter paper on a quadrant or circular area of ca. 2.4 cm^2 radius. 4 of the 6 wells are filled with different test substances or with the same test substance in different dilutions (e.g. 1, 3.2, 5, 10 and 20 μg/cm^2). The 5th well is treated with DEET (N,N-diethyl-m-toluamide) as standard substance. The 6th well is filled with the pure solvent and serves as a control. 60 to 100 larvae or 25 to 50 nymphs or 10 to 25 adults of the parasite to be tested, e.g. ticks, are added to each filter paper, and the system is covered with a pane of glass and positioned under a video camera. At intervals of 5 seconds, the video camera takes individual pictures of all 6 wells. For a qualitative evaluation, these images are observed in a time-lapse as a continuous film, optically following the movements of the parasites on the filter paper and comparing them with the movements in the control well no. 6 or with the standard in the 5th well. A qualitative observation is thus made as to whether the test parasites move evenly over the whole surface of the filter paper and ignore the test substance, or whether and over what period they avoid the treated zone, and what influence the dilution of the test substance has on the behaviour of the test parasites. In this way, neutral and deterring substances are determined. At the same time, the duration of activity of the test substance is determined and compared with that of the standard. By plotting all the images for each individual well over one another, different areas of density are obtained. This represents the frequency at which the parasites visit certain places. This frequency is evaluated statistically and thus quantitatively by the Willcoxon method in a comparison with the control and with the standard. Compounds of Table 1, for example nos.
Arena Test in vitro Against Amblyomma Hebraeum or Variegatum (nymphs)
The test is carried out as described above, with ca. 25 to 50 nymphs being added per well. 10 mg of dissolved test substance is applied to an area of 2.4 cm^2 radius. […] 1.26 to 1.36, 1.40, 1.45, 1.47, 1.95, 1.96, 1.97, 1.137, and 1.139, even up to a dilution of 3.2 μg/cm^2.

The test system of assay [4] is ticks. The assay can be described thus: Arena test method for testing vermin-deterring substances. Type of assay: in vivo. To be noted: 1 to 100 μg/cm^2 on filter paper; video evaluation against solvent control and DEET standard. The procedure:
Arena Test Method for Testing Vermin-deterring Substances
as §2

Assay [5] concerns certain plant damaging insects. As to conditions: cited from earlier work.

Structures are written as SMILES.

The source of these data is patent US6780876B2, “Composition for keeping away vermin” (Novartis Animal Health US, Inc., priority 1998, dated 2004).

As for `OC(c1ccccc1)C1CCCCN1` (stereo not drawn) [Compound 1.40, 2-[(1-phenyl)(1-hydroxy)methyl]piperidine], the long-term deterring activity entry in assay [1] and in assay [2] was “Particularly marked long-term activity” throughout. Moreover, the long-term deterrent activity result in assay [3] was “Particularly marked long-term activity”.
`CCCCCCCCCCC(O)C1CCCCN1` (stereo not drawn) [Compound 1.27, 2-[n-(1-hydroxyundecyl)]piperidine]: the long-term deterring activity result in assay [1] is on record as “Particularly marked long-term activity”.
In the case of `Cc1ccc(C(O)C2CCCCN2C)cc1` (stereo not drawn) [Compound 1.87, N-methyl-2-[(1-[4-methylphenyl])-(1-hydroxy)methyl]piperidine], in assay [4], the “vermin-deterring activity in the arena test” value (“vermin-deterring activity” for short) is given as “excellent activity”.
Take `CCCCCCCCCCCCC(O)C1CCCCN1` (stereo not drawn) [Compound 1.29, 2-[n-(1-hydroxytridecyl)]piperidine]: in assay [1], the long-term deterring activity entry was “Particularly marked long-term activity”.
Turning to `CC1(C)CCCC(C(O)c2ccc(Cl)cc2)N1` (stereo not drawn) [Compound 1.139, 6,6-dimethyl-2-[(1-[4-chlorphenyl])(1-hydroxy)methyl]piperidine], the long-term deterring activity entry in assay [1] and in assay [2] was “Particularly marked long-term activity” each time. In assay [4], the “vermin-deterring activity” value is reported as “excellent activity”. For the same molecule, in assay [3], the long-term deterrent activity entry is recorded as “Particularly marked long-term activity”.
Take `CC(C)c1ccc(C(O)C2CCCCN2)cc1` (stereo not drawn) [Compound 1.95, 2-[(1-[4-isopropyl-phenyl])(1-hydroxy)methyl]piperidine]: in assay [4], the “vermin-deterring activity” value was “excellent activity”. Further, the long-term deterring activity entry in assay [2] is given as “Particularly marked long-term activity”. Besides, in assay [3], the long-term deterrent activity entry is “Particularly marked long-term activity”.
With `OC[C@H]1NC[C@H](O)[C@@H](O)[C@@H]1O` [deoxynojirimicin], the “activity as a deterrent” value in assay [5] is “slight activity”.
In the case of `OC(COCc1ccccc1)C1CCCCN1` (stereo not drawn) [Compound 1.137], the long-term deterring activity entry in assay [1] and in assay [2] was “Particularly marked long-term activity” in each case. Moreover, the “vermin-deterring activity” value in assay [4] is reported as “excellent activity”. Further, the long-term deterrent activity result in assay [3] is “Particularly marked long-term activity”.
As for `OC(c1ccccc1)(c1ccc2c(c1)CCO2)C1CCCCN1` (stereo not drawn) [Compound 1.59], the long-term deterring activity entry in assay [1] is “Particularly marked long-term activity”. Moreover, the “vermin-deterring activity” value in assay [4] is recorded as “excellent activity”.
Consider `CN1CCCCC1C(O)c1ccccc1` (stereo not drawn) [Compound 1.45, N-me-thyl-2-[(1-phenyl)(1-hydroxy)methyl]piperidine], for which the long-term deterring activity entry in assay [1] and in assay [2] was “Particularly marked long-term activity” in each case. The “vermin-deterring activity” value in assay [4] was “excellent activity”. For the same molecule, the long-term deterrent activity result in assay [3] is listed as “Particularly marked long-term activity”.
`CCCCCCCCCCC(O)C1CCCCN1C(=O)OCC` (stereo not drawn) [Compound 1.141, N -ethoxycarbonyl--2-[(1-hydroxy)(1-undecycl)]piperidine]: the long-term deterring activity result in assay [2] is listed as “Particularly marked long-term activity”.
As to `OC(c1ccccc1)C1CCCCN1` (stereo not drawn) [Compound 1.44, 2-[(1-phenyl)(1-hydroxy)methyl]piperidine], in assay [4], the “vermin-deterring activity” value was “excellent activity”.
For the molecule `CCCCCCCCCCCCCCCCCCC(O)C1CCCCN1` (stereo not drawn) [Compound 1.36, 2-[n-(1-hydroxynonadecyl)]piperidine], in assay [1], the long-term deterring activity entry is reported as “Particularly marked long-term activity”.
Regarding `CCCCCCCCCCC(O)C1CCCCN1C(C)=O` (stereo not drawn) [Compound 1.140, N-acetyl-2-[(1-hydroxy)(1-undecyl)]piperidine], the long-term deterring activity result in assay [2] is given as “Particularly marked long-term activity”.
As to `CC(C)c1ccc(C(O)C2CCCCN2C)cc1` (stereo not drawn) [Compound 1.96, N-methyl-2-[(1-[4-isopropylphenyl])(1-hydroxy)methyl]-piperidine], the long-term deterring activity result in assay [1] and in assay [2] was “Particularly marked long-term activity” in each case. In addition, the “vermin-deterring activity” value in assay [4] is “excellent activity”. Further, the long-term deterrent activity result in assay [3] is listed as “Particularly marked long-term activity”.
Regarding `CC1(C)CCCC(C(O)c2ccc(Cl)cc2)N1` (stereo not drawn) [Compound 1.101, 6,6-dimethyl-2-[(1-[4-chlorphenyl])(1-hydroxy)methyl]piperidine], the “vermin-deterring activity” value in assay [4] was “excellent activity”.
On to `COc1ccc(C(O)C2CCCCN2)cc1` (stereo not drawn) [Compound 1.97, 2-[(1-[4-methoxyphenyl])(1-hydroxy)methyl]piperidine], for which, in assay [4], the “vermin-deterring activity” value is given as “excellent activity”. Also, the long-term deterring activity entry in assay [2] is “Particularly marked long-term activity”. In addition, in assay [3], the long-term deterrent activity result is on record as “Particularly marked long-term activity”.
Regarding `Cc1ccc(C(O)C2CCCCN2)cc1` (stereo not drawn) [Compound 1.89, 2-[(1-[4-methylphenyl])(1-hydroxy)methyl]piperidine], in assay [4], the “vermin-deterring activity” value is on record as “excellent activity”.
For the molecule `CCCCCCCCCCCCCCC(O)C1CCCCN1` (stereo not drawn) [Compound 1.32, 2-[n-(1-hydroxypentade-cyl)]piperidine], the long-term deterring activity result in assay [1] is on record as “Particularly marked long-term activity”.
`CCCCCCCCCCCCCCCCC(O)C1CCCCN1` (stereo not drawn) [Compound 1.34, 2-[n-(1-hydroxyheptadecyl)]piperidine]: the long-term deterring activity result in assay [1] is given as “Particularly marked long-term activity”.
